Results published in patent US20230398130A1, “METHODS AND COMPOSITIONS FOR DIFFERENTIATING STEM CELLS” (Massachusetts Institute of Technology, priority 2020, published 2023).

Columns and labels:
ISC-enriched organoids [1] = test: Primary screen, 384-well 2.5-D organoid differentiation (ENR+CD, 6 days, Target Selective Inhibitor Library, vs whole-plate median): ATP (CellTiter-Glo 3D, CTG); conditions: for Z.CTG (standard z score) / Dose.FC.CTG (log 2 fold change) / Dose.FC.CTG / Z.CTG / SSMD.CTG: primary screen; for Dose.FC.CTG (log 2 fold change): vs plate median; for Dose.FC.CTG: ENR+CD 6 days, FC vs plate median; for SSMD.CTG: strictly standardized mean difference
ISC-enriched organoids [2] = test: Primary screen, 384-well 2.5-D organoid differentiation (ENR+CD, 6 days): carbachol-induced lysozyme secretion (LYZ.S); format: cell-based, murine; conditions: for Dose.FC.LYZ.S (log 2 fold change) / Dose.FC.LYZ.S / Z.LYZ.S / SSMD.LYZ.S: primary screen; for Dose.FC.LYZ.S (log 2 fold change): vs plate median; for Dose.FC.LYZ.S: ENR+CD 6 days, FC vs plate median; for Z.LYZ.S: standard z score; for SSMD.LYZ.S: strictly standardized mean difference
Excerpt: (§1) High-throughput screening.

ISC-enriched organoids [3] = test: Primary screen, 384-well 2.5-D organoid differentiation (ENR+CD, 6 days): basal lysozyme secretion (LYZ.NS); format: cell-based, murine; conditions: for Z.LYZ.NS (standard z score) / Dose.FC.LYZ.NS (log 2 fold change) / Dose.FC.LYZ.NS / Z.LYZ.NS / SSMD.LYZ.NS: primary screen; for Dose.FC.LYZ.NS (log 2 fold change): vs plate median; for Dose.FC.LYZ.NS: ENR+CD 6 days, FC vs plate median; for Z.LYZ.NS: standard z score of FC; for SSMD.LYZ.NS: strictly standardized mean difference
Excerpt: as §1

[4] = dose 0.08 uM (1st of 4 lines per treatment; dose not printed in this part)
[5] = dose 0.40 uM (2nd of 4 lines per treatment; dose not printed in this part)
[6] = dose 2.00 uM (3rd of 4 lines per treatment; dose not printed in this part)
[7] = dose 10.00 uM (4th of 4 lines per treatment; dose not printed in this part)
[8] = 1st of the 4 dose lines of the treatment (dose not given)
[9] = 2nd of the 4 dose lines of the treatment (dose not given)
[10] = 3rd of the 4 dose lines of the treatment (dose not given)
[11] = 4th of the 4 dose lines of the treatment (dose not given)

## Cc1cc(NC(=O)Nc2ccc(N(C)C)cc2)c2cc(F)cc(F)c2n1 [SB408124]
ISC-enriched organoids [1]; Dose 0.08 uM
  Z.CTG (standard z score): 0.978
  Dose.FC.CTG (log 2 fold change): 0.410
ISC-enriched organoids [1]; Dose 0.40 uM
  Z.CTG (standard z score): 0.799
  Dose.FC.CTG (log 2 fold change): 0.334
ISC-enriched organoids [1]; Dose 2.00 uM
  Z.CTG (standard z score): 0.869
  Dose.FC.CTG (log 2 fold change): 0.364
ISC-enriched organoids [1]; Dose 10.00 uM
  Z.CTG (standard z score): 0.216
  Dose.FC.CTG (log 2 fold change): 0.091
ISC-enriched organoids [2]; Dose 0.08 uM
  Dose.FC.LYZ.S (log 2 fold change): 0.198
ISC-enriched organoids [2]; Dose 0.40 uM
  Dose.FC.LYZ.S (log 2 fold change): 0.193
ISC-enriched organoids [2]; Dose 2.00 uM
  Dose.FC.LYZ.S (log 2 fold change): 0.082
ISC-enriched organoids [2]; Dose 10.00 uM
  Dose.FC.LYZ.S (log 2 fold change): −0.148
ISC-enriched organoids [3]; Dose 0.08 uM
  Z.LYZ.NS (standard z score): 1.494
  Dose.FC.LYZ.NS (log 2 fold change): 0.172
ISC-enriched organoids [3]; Dose 0.40 uM
  Z.LYZ.NS (standard z score): 1.168
  Dose.FC.LYZ.NS (log 2 fold change): 0.134
ISC-enriched organoids [3]; Dose 2.00 uM
  Z.LYZ.NS (standard z score): 0.730
  Dose.FC.LYZ.NS (log 2 fold change): 0.084
ISC-enriched organoids [3]; Dose 10.00 uM
  Z.LYZ.NS (standard z score): −0.607
  Dose.FC.LYZ.NS (log 2 fold change): −0.070

## C[C@H](Oc1cc(-c2cnn(C3CCNCC3)c2)cnc1N)c1c(Cl)ccc(F)c1Cl [(S)-crizotinib]
ISC-enriched organoids [1]; [4]
  SSMD.CTG_Rep (strictly standardized mean difference): 0.742
ISC-enriched organoids [1]; [5]
  SSMD.CTG_Rep (strictly standardized mean difference): 0.190
ISC-enriched organoids [1]; [6]
  SSMD.CTG_Rep (strictly standardized mean difference): 0.285
ISC-enriched organoids [1]; [7]
  SSMD.CTG_Rep (strictly standardized mean difference): 0.034
ISC-enriched organoids [1]; dose 0.08 uM
  Dose.FC.CTG: 0.241 log 2 fold change
ISC-enriched organoids [1]; dose 0.08 uM, standard z score of FC
  Z.CTG: 0.575
ISC-enriched organoids [1]; dose 0.40 uM
  Dose.FC.CTG: 0.054 log 2 fold change
ISC-enriched organoids [1]; dose 0.40 uM, standard z score of FC
  Z.CTG: 0.130
ISC-enriched organoids [1]; dose 2.00 uM
  Dose.FC.CTG: 0.111 log 2 fold change
ISC-enriched organoids [1]; dose 2.00 uM, standard z score of FC
  Z.CTG: 0.266
ISC-enriched organoids [1]; dose 10.00 uM
  Dose.FC.CTG: 0.019 log 2 fold change
ISC-enriched organoids [1]; dose 10.00 uM, standard z score of FC
  Z.CTG: 0.046
ISC-enriched organoids [2]; [4]
  SSMD.LYZ.S_Rep (strictly standardized mean difference): 0.881
  Z.LYZ.S (standard z score): 0.808
ISC-enriched organoids [2]; [5]
  SSMD.LYZ.S_Rep (strictly standardized mean difference): 0.084
  Z.LYZ.S (standard z score): 0.103
ISC-enriched organoids [2]; [6]
  SSMD.LYZ.S_Rep (strictly standardized mean difference): −0.343
  Z.LYZ.S (standard z score): −0.383
ISC-enriched organoids [2]; [7]
  SSMD.LYZ.S_Rep (strictly standardized mean difference): −0.491
  Z.LYZ.S (standard z score): −0.720
ISC-enriched organoids [2]; dose 0.08 uM
  Dose.FC.LYZ.S: 0.125 log 2 fold change
ISC-enriched organoids [2]; dose 0.40 uM
  Dose.FC.LYZ.S: 0.016 log 2 fold change
ISC-enriched organoids [2]; dose 2.00 uM
  Dose.FC.LYZ.S: −0.059 log 2 fold change
ISC-enriched organoids [2]; dose 10.00 uM
  Dose.FC.LYZ.S: −0.111 log 2 fold change
ISC-enriched organoids [3]; [4]
  SSMD.LYZ.NS_Rep (strictly standardized mean difference): 0.838
ISC-enriched organoids [3]; [5]
  SSMD.LYZ.NS_Rep (strictly standardized mean difference): 0.094
ISC-enriched organoids [3]; [6]
  SSMD.LYZ.NS_Rep (strictly standardized mean difference): −0.229
ISC-enriched organoids [3]; [7]
  SSMD.LYZ.NS_Rep (strictly standardized mean difference): −0.438
ISC-enriched organoids [3]; dose 0.08 uM
  Dose.FC.LYZ.NS: 0.193 log 2 fold change
  Z.LYZ.NS: 1.679
ISC-enriched organoids [3]; dose 0.40 uM
  Dose.FC.LYZ.NS: 0.009 log 2 fold change
  Z.LYZ.NS: 0.081
ISC-enriched organoids [3]; dose 2.00 uM
  Dose.FC.LYZ.NS: −0.034 log 2 fold change
  Z.LYZ.NS: −0.294
ISC-enriched organoids [3]; dose 10.00 uM
  Dose.FC.LYZ.NS: −0.068 log 2 fold change
  Z.LYZ.NS: −0.588

## O=C(/C=C/c1ccccc1)NC(NC(=S)Nc1ccc(Cl)cc1)C(Cl)(Cl)Cl (stereo not drawn) [Sal003]
ISC-enriched organoids [1]; Dose 0.08 uM
  Z.CTG (standard z score): 0.456
  Dose.FC.CTG (log 2 fold change): 0.191
ISC-enriched organoids [1]; Dose 0.40 uM
  Z.CTG (standard z score): 0.370
  Dose.FC.CTG (log 2 fold change): 0.155
ISC-enriched organoids [1]; Dose 2.00 uM
  Z.CTG (standard z score): 0.468
  Dose.FC.CTG (log 2 fold change): 0.196
ISC-enriched organoids [1]; Dose 10.00 uM
  Z.CTG (standard z score): −1.981
  Dose.FC.CTG (log 2 fold change): −0.829
ISC-enriched organoids [2]; Dose 0.08 uM
  Dose.FC.LYZ.S (log 2 fold change): 0.092
ISC-enriched organoids [2]; Dose 0.40 uM
  Dose.FC.LYZ.S (log 2 fold change): 0.067
ISC-enriched organoids [2]; Dose 2.00 uM
  Dose.FC.LYZ.S (log 2 fold change): 0.040
ISC-enriched organoids [2]; Dose 10.00 uM
  Dose.FC.LYZ.S (log 2 fold change): −0.408
ISC-enriched organoids [3]; Dose 0.08 uM
  Z.LYZ.NS (standard z score): 1.013
  Dose.FC.LYZ.NS (log 2 fold change): 0.116
ISC-enriched organoids [3]; Dose 0.40 uM
  Z.LYZ.NS (standard z score): 1.595
  Dose.FC.LYZ.NS (log 2 fold change): 0.183
ISC-enriched organoids [3]; Dose 2.00 uM
  Z.LYZ.NS (standard z score): 0.670
  Dose.FC.LYZ.NS (log 2 fold change): 0.077
ISC-enriched organoids [3]; Dose 10.00 uM
  Z.LYZ.NS (standard z score): −2.142
  Dose.FC.LYZ.NS (log 2 fold change): −0.246

## CCn1c(=O)c2c(nc(/C=C/c3ccc(OC)c(OC)c3)n2C)n(CC)c1=O [Istradefylline]
ISC-enriched organoids [1]; Dose 0.08 uM, standard z score
  Z.CTG: −0.107
ISC-enriched organoids [1]; Dose 0.40 uM, standard z score
  Z.CTG: 0.158
ISC-enriched organoids [1]; Dose 2.00 uM, standard z score
  Z.CTG: −0.375
ISC-enriched organoids [1]; Dose 10.00 uM, standard z score
  Z.CTG: −0.091
ISC-enriched organoids [1]; [8]
  SSMD.CTG: −0.113
ISC-enriched organoids [1]; [9]
  SSMD.CTG: 0.225
ISC-enriched organoids [1]; [10]
  SSMD.CTG: −0.412
ISC-enriched organoids [1]; [11]
  SSMD.CTG: −0.106
ISC-enriched organoids [2]; [8]
  Z.LYZ.S: −0.190
  SSMD.LYZ.S: −0.139
ISC-enriched organoids [2]; [9]
  Z.LYZ.S: −0.560
  SSMD.LYZ.S: −0.661
ISC-enriched organoids [2]; [10]
  Z.LYZ.S: −0.621
  SSMD.LYZ.S: −0.578
ISC-enriched organoids [2]; [11]
  Z.LYZ.S: −0.367
  SSMD.LYZ.S: −0.289
ISC-enriched organoids [3]; [8]
  SSMD.LYZ.NS: −0.084
ISC-enriched organoids [3]; [9]
  SSMD.LYZ.NS: −0.362
ISC-enriched organoids [3]; [10]
  SSMD.LYZ.NS: −0.012
ISC-enriched organoids [3]; [11]
  SSMD.LYZ.NS: −0.336
